These results are taken from the supplement of paper PMC10307832.

Common to all, as to assay: relative viability (nuclei count vs DMSO), 5 days (fraction); higher = more cells survive
Compound in assay [1]: Cn1nnc2c(C(N)=O)ncn2c1=O [Temozolomide] + O=C(CCCCCCC(=O)Nc1ccccc1)NO [Vorinostat] (partner 1 µM)
The essentials: (§1)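 Lung cancer cell lines in 1536-well plates got either a single drug or a fixed anchor-drug dose together with five library-drug doses (not always all listed) in √10 steps, by pin tool, on the day after seeding. Nuclei were counted after 5 days, and relative viability is the treated-to-vehicle ratio of nuclei counts. Values are medians of duplicate plates.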

Compound in assay [2]: Cn1nnc2c(C(N)=O)ncn2c1=O [Temozolomide] + CC(C)C[C@H](NC(=O)[C@H](Cc1ccccc1)NC(=O)c1cnccn1)B(O)O [Bortezomib] (partner 0.002 µM)
Put shortly:
as §1

Compound in the assay “AZD5582 + Trametinib”: C[C@@H](C(=O)N[C@@H](C1CCCCC1)C(=O)N2CCC[C@H]2C(=O)N[C@@H]3[C@@H](CC4=CC=CC=C34)OCC#CC#CCO[C@@H]5CC6=CC=CC=C6[C@@H]5NC(=O)[C@@H]7CCCN7C(=O)[C@H](C8CCCCC8)NC(=O)[C@H](C)NC)NC [AZD5582] + CC(=O)Nc1cccc(-n2c(=O)n(C3CC3)c(=O)c3c(Nc4ccc(I)cc4F)n(C)c(=O)c(C)c32)c1 [Trametinib] (partner 0.02 µM)
Put shortly:
as §1

Compound in the assay “AZD5582 + Phenformin”: C[C@@H](C(=O)N[C@@H](C1CCCCC1)C(=O)N2CCC[C@H]2C(=O)N[C@@H]3[C@@H](CC4=CC=CC=C34)OCC#CC#CCO[C@@H]5CC6=CC=CC=C6[C@@H]5NC(=O)[C@@H]7CCCN7C(=O)[C@H](C8CCCCC8)NC(=O)[C@H](C)NC)NC [AZD5582] + N=C(N)NC(=N)NCCc1ccccc1 [Phenformin] (partner 250 µM)
The essentials: as §1

For NCI-H1651, the relative viability in assay [1] (first compound 0.2 µM) was determined as 0.582; in assay [1] (first compound 0.6325 µM) it was 0.49; in assay [1] (first compound 2 µM) it was 0.628; in assay [1] (first compound 6.325 µM), 0.499; in assay [1] (first compound 20 µM) it was 0.613; in assay [2] (first compound 0.2 µM), 1.01. The relative viability in assay [2] (first compound 0.6325 µM) turned out to be 0.975; in assay [2] (first compound 2 µM), 0.989; in assay [2] (first compound 6.325 µM), 0.915; in assay [2] (first compound 20 µM) it was 0.898; with AZD5582 + Trametinib (first compound 0.001581 µM) it was 0.751; with AZD5582 + Trametinib (first compound 0.005 µM) it was 0.847. In addition, the relative viability with AZD5582 + Trametinib (first compound 0.01581 µM) was 0.8; with AZD5582 + Trametinib (first compound 0.05 µM), 0.946; in the assay with AZD5582 + Phenformin (first compound 0.001581 µM) it was 0.353; with AZD5582 + Phenformin (first compound 0.005 µM) it was 0.339; in the assay with AZD5582 + Phenformin (first compound 0.05 µM) it was 0.435.
Turning to NCI-H1666, the relative viability is 1.07 in assay [1] (first compound 0.2 µM); 1 in assay [1] (first compound 0.6325 µM); 0.94 in assay [1] (first compound 2 µM); 0.794 in assay [1] (first compound 6.325 µM); 0.868 in assay [1] (first compound 20 µM); 0.779 in assay [2] (first compound 0.2 µM). Further, the relative viability in assay [2] (first compound 0.6325 µM) worked out at 0.9; in assay [2] (first compound 2 µM), 0.595; in assay [2] (first compound 6.325 µM), 0.647; in assay [2] (first compound 20 µM) it was 0.416; with AZD5582 + Trametinib (first compound 0.001581 µM) it was 0.959; with AZD5582 + Trametinib (first compound 0.005 µM), 0.864. The relative viability with AZD5582 + Trametinib (first compound 0.01581 µM) is 0.846; with AZD5582 + Trametinib (first compound 0.05 µM) it was 0.852; with AZD5582 + Phenformin (first compound 0.001581 µM), 0.532; with AZD5582 + Phenformin (first compound 0.005 µM), 0.544; with AZD5582 + Phenformin (first compound 0.01581 µM), 0.557; with AZD5582 + Phenformin (first compound 0.05 µM) it was 0.609.
Take NCI-H1734: the relative viability in assay [1] (first compound 0.2 µM) is 0.814; in assay [1] (first compound 0.6325 µM) it was 0.79; in assay [1] (first compound 2 µM) it was 0.861; in assay [1] (first compound 6.325 µM), 0.709; in assay [1] (first compound 20 µM), 0.831; in assay [2] (first compound 0.2 µM) it was 1.07. The relative viability in assay [2] (first compound 0.6325 µM) stood at 0.871; in assay [2] (first compound 2 µM) it was 0.963; in assay [2] (first compound 6.325 µM) it was 0.771; in assay [2] (first compound 20 µM) it was 0.949; with AZD5582 + Trametinib (first compound 0.001581 µM), 0.621; with AZD5582 + Trametinib (first compound 0.005 µM), 0.696. The relative viability in the assay with AZD5582 + Trametinib (first compound 0.01581 µM) was 0.743; in the assay with AZD5582 + Trametinib (first compound 0.05 µM) it was 0.701; with AZD5582 + Phenformin (first compound 0.001581 µM), 0.418; in the assay with AZD5582 + Phenformin (first compound 0.005 µM), 0.516; in the assay with AZD5582 + Phenformin (first compound 0.01581 µM) it was 0.37; with AZD5582 + Phenformin (first compound 0.05 µM), 0.455.
NCI-H1755: the relative viability in assay [1] (first compound 0.2 µM) worked out at 0.863; in assay [1] (first compound 0.6325 µM), 0.763; in assay [1] (first compound 2 µM), 0.604; in assay [1] (first compound 6.325 µM), 0.627; in assay [1] (first compound 20 µM), 0.638; in assay [2] (first compound 0.2 µM), 0.961. Further, the relative viability came out at 0.952 in assay [2] (first compound 0.6325 µM); 1.01 in assay [2] (first compound 2 µM); 0.897 in assay [2] (first compound 6.325 µM); 0.84 in assay [2] (first compound 20 µM); 0.761 in the assay with AZD5582 + Trametinib (first compound 0.001581 µM); 0.843 with AZD5582 + Trametinib (first compound 0.005 µM). Moreover, the relative viability worked out at 0.802 in the assay with AZD5582 + Trametinib (first compound 0.01581 µM); 0.9 with AZD5582 + Trametinib (first compound 0.05 µM); 0.578 with AZD5582 + Phenformin (first compound 0.001581 µM); 0.666 with AZD5582 + Phenformin (first compound 0.005 µM); 0.502 with AZD5582 + Phenformin (first compound 0.01581 µM); 0.576 in the assay with AZD5582 + Phenformin (first compound 0.05 µM).
As to NCI-H1915, the relative viability was 0.61 in assay [1] (first compound 0.2 µM); 0.517 in assay [1] (first compound 0.6325 µM); 0.507 in assay [1] (first compound 2 µM); 0.343 in assay [1] (first compound 6.325 µM); 0.241 in assay [1] (first compound 20 µM); 0.972 in assay [2] (first compound 0.2 µM). Moreover, the relative viability in assay [2] (first compound 0.6325 µM) was determined as 0.96; in assay [2] (first compound 2 µM), 0.933; in assay [2] (first compound 6.325 µM) it was 0.729; in assay [2] (first compound 20 µM), 0.354; in the assay with AZD5582 + Trametinib (first compound 0.001581 µM), 0.309; in the assay with AZD5582 + Trametinib (first compound 0.005 µM), 0.294. Moreover, the relative viability was 0.296 with AZD5582 + Trametinib (first compound 0.01581 µM); 0.373 with AZD5582 + Trametinib (first compound 0.05 µM); 0.358 in the assay with AZD5582 + Phenformin (first compound 0.001581 µM); 0.361 in the assay with AZD5582 + Phenformin (first compound 0.005 µM); 0.342 with AZD5582 + Phenformin (first compound 0.01581 µM); 0.367 in the assay with AZD5582 + Phenformin (first compound 0.05 µM).
In the case of NCI-H1975, the relative viability in assay [1] (first compound 0.2 µM) turned out to be 0.854; in assay [1] (first compound 0.6325 µM), 0.76; in assay [1] (first compound 2 µM), 0.711; in assay [1] (first compound 6.325 µM), 0.701; in assay [1] (first compound 20 µM), 0.719; in assay [2] (first compound 0.2 µM), 0.462. Moreover, the relative viability was 0.418 in assay [2] (first compound 0.6325 µM); 0.384 in assay [2] (first compound 2 µM); 0.413 in assay [2] (first compound 6.325 µM); 0.298 in assay [2] (first compound 20 µM); 0.444 with AZD5582 + Trametinib (first compound 0.001581 µM); 0.434 with AZD5582 + Trametinib (first compound 0.005 µM). For the same cell line, the relative viability in the assay with AZD5582 + Trametinib (first compound 0.01581 µM) amounted to 0.448; with AZD5582 + Trametinib (first compound 0.05 µM), 0.322; with AZD5582 + Phenformin (first compound 0.001581 µM) it was 0.416; in the assay with AZD5582 + Phenformin (first compound 0.005 µM) it was 0.457; in the assay with AZD5582 + Phenformin (first compound 0.01581 µM) it was 0.393; with AZD5582 + Phenformin (first compound 0.05 µM), 0.452.
As for NCI-H1993, the relative viability in assay [1] (first compound 0.2 µM) came to 0.546; in assay [1] (first compound 0.6325 µM), 0.829; in assay [1] (first compound 2 µM), 1.07; in assay [1] (first compound 6.325 µM) it was 0.798; in assay [1] (first compound 20 µM), 0.507; in assay [2] (first compound 0.2 µM), 0.944. The relative viability worked out at 1.19 in assay [2] (first compound 0.6325 µM); 1.14 in assay [2] (first compound 2 µM); 1.07 in assay [2] (first compound 6.325 µM); 0.736 in assay [2] (first compound 20 µM); 0.455 with AZD5582 + Trametinib (first compound 0.001581 µM); 0.505 with AZD5582 + Trametinib (first compound 0.005 µM). The relative viability with AZD5582 + Trametinib (first compound 0.01581 µM) was found to be 0.493; in the assay with AZD5582 + Trametinib (first compound 0.05 µM), 0.526; in the assay with AZD5582 + Phenformin (first compound 0.001581 µM), 0.535; with AZD5582 + Phenformin (first compound 0.005 µM), 0.464; with AZD5582 + Phenformin (first compound 0.01581 µM) it was 0.483; with AZD5582 + Phenformin (first compound 0.05 µM) it was 0.532.
Take NCI-H2009: the relative viability came to 0.826 in assay [1] (first compound 0.2 µM); 0.737 in assay [1] (first compound 0.6325 µM); 0.712 in assay [1] (first compound 2 µM); 0.706 in assay [1] (first compound 6.325 µM); 0.684 in assay [1] (first compound 20 µM); 1.19 in assay [2] (first compound 0.2 µM). Besides, the relative viability stood at 1 in assay [2] (first compound 0.6325 µM); 1.19 in assay [2] (first compound 2 µM); 0.961 in assay [2] (first compound 6.325 µM); 1.04 in assay [2] (first compound 20 µM); 0.281 with AZD5582 + Trametinib (first compound 0.001581 µM); 0.297 with AZD5582 + Trametinib (first compound 0.005 µM). The relative viability in the assay with AZD5582 + Trametinib (first compound 0.01581 µM) came to 0.295; with AZD5582 + Trametinib (first compound 0.05 µM), 0.333; with AZD5582 + Phenformin (first compound 0.001581 µM) it was 0.445; in the assay with AZD5582 + Phenformin (first compound 0.005 µM), 0.534; with AZD5582 + Phenformin (first compound 0.01581 µM), 0.454; with AZD5582 + Phenformin (first compound 0.05 µM), 0.451.
